Data taken from publication PMC4447534 (ChemMedChem, 2015).
Where “and” joins values, the source holds several entries; their conditions need not be identical. Equal values may be shown once. Read-outs that look alike come from different tables or passages of the source.

Assays:
[1] = test system: T. cruzi (amastigotes); assay: microbe, parasite or virus in culture; details: Trypanosoma cruzi, read-out: T. cruzi ED50
[2] = test system: T. cruzi (amastigotes); details: for T. cruzi ED50: intracellular amastigotes, one experiment in triplicate, means ± S.D.; for SI (T. cruzi): selectivity index, Vero cells versus T. cruzi
[3] = test system: T. gondii (tachyzoites)
[4] = test system: Vero cells; assay: Cytotoxicity for Vero cells; format: cell-based; details: one experiment in triplicate, means ± S.D.
[5] = test system: amastigotes of Trypanosoma cruzi; details: cited from earlier work
[6] = test system: murine models of Chagas disease; details: ketoconazole as positive control; cited from earlier work
[7] = selectivity index, Vero cells versus T. gondii

Compound	IC50 [1] [µM]	T. cruzi ED50 [2]	Cytotoxicity ED50 [4] [µM]	also measured
O=C(Cn1ccnc1[N+](=O)[O-])NCc1ccccc1 [Benznidazole, reference compound]	1.92 ± 0.55			
N#CSCCOc1ccc(Oc2cccc(C(F)(F)F)c2)cc1 [Compound 15, 4-[(3-Trifluoro)phenoxy]phenoxyethyl Thiocyanate]		10.0 µM and 10.0 ± 2.5 µM	> 50.0	SI (T. cruzi) [2]: > 5.0; SI (T. gondii) [3]: > 31.1; T. gondii ED50 [3]: 1.6 µM and 1.66 ± 0.35 µM
N#CSCCOc1ccc(Oc2ccc(C(F)(F)F)cc2)cc1 [Compound 16, 4-[(4-Trifluoro)phenoxy]phenoxyethyl Thiocyanate]		9.2 µM and 9.2 ± 1.8 µM	> 50.0	SI (T. gondii) [3]: > 26.7; T. gondii ED50 [3]: 1.9 µM and 1.86 ± 0.38 µM
N#CSCCOc1ccc(Oc2ccc3ccccc3c2)cc1 [Compound 20, β-Naphtyloxyphenoxyethyl Thiocyanate]			104.7 ± 7.8	T. gondii ED50 [3]: 2.3 µM and 2.25 ± 0.84 µM; SI (T. gondii) [3, 7]: 46.5
N#CSCCOc1ccc(Oc2ccccn2)cc1 [Compound 29, 4-(Pyridin-2-yloxy)phenoxyethyl Thiocyante]			> 200.0	
N#CSCCOc1cccc(Oc2ccccc2Cl)c1 [Compound 46, 3-(2-Chlorophenoxy)phenoxyethyl Thiocyanate]	11.9 ± 0.38		> 50.0	SI (T. gondii) [3, 7]: 23.4
N#CSCCOc1cccc(Oc2cccc(Cl)c2)c1 [Compound 47, 3-(3-Chlorophenoxy)phenoxyethyl Thiocyanate]	> 20	vanishing biological activity	> 200.0	
N#CSCCOc1cccc(Oc2ccc(Cl)cc2)c1 [Compound 48, 3-(4-Chlorophenoxy)phenoxyethyl Thiocyanate]	6.27 ± 0.75	very low micromolar range	98.4 ± 5.8	SI (T. cruzi) [2]: 15.7
COc1ccccc1Oc1cccc(OCCSC#N)c1 [Compound 49, 3-(2-Methoxyphenoxy)phenoxyethyl Thiocyanate]	11.7 ± 2.52		115.7 ± 39.8	SI (T. gondii) [3, 7]: 41.5
COc1cccc(Oc2cccc(OCCSC#N)c2)c1 [Compound 50, 3-(3-Methoxyphenoxy)-phenoxyethyl Thiocyanate]	8.75 ± 0.33		96.2 ± 37.5	SI (T. cruzi) [2]: 11.0; SI (T. gondii) [3, 7]: 23.9
N#CSCCOc1cccc(Oc2ccccn2)c1 [Compound 60, 3-(2-Pyridyloxy)phenoxyethyl Thiocyanate]	> 10	free of antiparasitic activity	> 200.0	
N#CSCCOc1cccc(Oc2cccnc2)c1 [Compound 61, 3-(3-Pyridyn-3-yloxy)phenoxyethyl Thiocyanate]			124.0 ± 12.0	SI (T. cruzi) [2]: 16.6; SI (T. gondii) [3]: 33.5
N#CSCCOc1cccc(Oc2ccncc2)c1 [Compound 62, 3-(4-Pyridyloxy)phenoxyethyl Thiocyanate]	> 10	free of antiparasitic activity	> 200.0	
[N-]=[N+]=NCCOc1ccc(Oc2ccccc2)cc1 [Compound 64, 4-Phenoxyphenoxyethyl Azide]	> 10		> 200.0	
N#CSCCOc1ccc(Br)cc1Br [Compound 68, 2,4-Dibromophenoxyethyl Thiocyanate]	> 20	inactive	> 50.0	
Cc1ccc(S(=O)(=O)OCCOc2cccnc2)cc1 [Compound 71, 3-Pyridyloxyethyl 4-Toluenesulfonate]	> 10		> 200	
N#CSCCOc1cccnc1 [Compound 72, 3-Pyridyloxyethyl Thiocyanate]		devoid of antiparasitic activity		T. gondii ED50 ([3]; tachyzoites, one experiment in triplicate, means ± S.D.): devoid of antiparasitic activity
N#CSCCOc1ccc(Oc2ccccc2)cc1 [WC-9, 4-phenoxyphenoxyethyl thiocyanate, reference compound]	5 ± 1.1		82.6 ± 7.3	ED50 against amastigotes of Trypanosoma cruzi [5]: low nanomolar range; effect on parasitemia [6]: able to impair parasitemia
α-Naphtyloxyphenylethyl Thiocyanate [Compound 24]				SI (T. cruzi) [2]: > 7; T. gondii ED50 [3]: 2.9 µM and 2.87 ± 0.19 µM; SI (T. gondii) [3, 7]: 24.4
